According to patent US8207175B2, “Inhibitor compounds” (University Court of the University of Dundee, priority 2005, dated 2012):
Like-named read-outs stand apart in the source and are kept apart here.

Experiments:
AfChiB1 [1] = target: T1, AfChiB1 (Aspergillus fumigatus, UniProt Q873X9); assay: biochemical; type: biochemical
Description: AfChiB1 was expressed, purified and inhibition studies performed as previously described [F. V. Rao, D. R. Houston, R. G. Boot, J. M. F. G. Aerts, M. Hodkinson, D. J. Adams, K. Shiomi, S. Omura, and D. M. F. van Aalten, Specificity and affinity of natural product cyclopentapeptide inhibitors against Aspergillus fumigatus, human and bacterial chitinases, Chemistry & Biology, 12, 65-76 (2005)].
Briefly, AfChiB1 was overexpressed as a GST-fusion protein in E. coli and purified using a combination of affinity and size-exclusion chromatography.
AfChiB1 inhibition was studied using the fluorogenic substrate 4-methylumbelliferyl-β-D-N,N′-diacetylchitobiose (4MU-GlcNAc2; Sigima). Briefly, in a final volume of 50 μl, 2 nM of enzyme was incubated with 20 μM substrate in McIlvain buffer (100 mM citric acid, 200 mM sodium phosphate, pH 5.5) containing 0.1 mg/ml BSA, for 10 min at 37° C. in the presence of different concentration of inhibitors. After the addition of 25 μl of 3 M glycine-NaOH, pH 10.3, the fluorescence of the liberated 4-methylumbelliferone (4MU) was quantified using a Flx 800 microtitrepiate fluorescence reader (Bio-Tek Instruments Inc.), with excitation and emission wavelengths of 360 nm and 460 nm, respectively, using 40 nm slits. Experiments were performed in triplicate. […]
The mode of action was determined by plotting the data as Lineweaver-Burk plots, and by fitting all data to the standard competitive inhibition equation with the GraFit software [R. J. Leatherbarrow, GraFit Version 5, Erithacus Software Ltd., Horley, U.K., (2001)].
The compounds according to an embodiment of the present invention were prepared according to the following methods, and further evaluated as inhibitors against AfChiB using the fluorescence-based assay described herein using 4methylumbelliferyl β-D-N,N-deacetyl-chitobioside as substrate. The assay results are shown in the accompanying tables 3-6.

human chitotriosidase = target: T2, human chitotriosidase (Homo sapiens, UniProt Q13231); assay: Human chitotriosidase inhibition, 4MU-GlcNAc2 chitinase assay; type: biochemical; conditions: 22 μM substrate, 1 nM enzyme, 30° C. for 30 minutes; read-out: hCHT IC50
T2 construct: made in house; host or cells: HEK 293 (transient transfection, supernatant)
Description: Inhibition studies were also performed on human chitotriosidase and AMCase.
The vector encodes three adjacent FLAG epitopes downstream of the cloning region. Plasmids encoding Flag tagged chitotriosidase and hAMCase were then transiently transfected into HEK 293 cells and supernatants harvested 3 or 6 days after transfection. FLAG-tagged expressing proteins were purified over an anti-FLAG M2 gel affinity column and eluted with a 3XFLAG peptide according to the manufacturers instructions. […] The buffers were same as described above for fungal chitinase assessments except that the assay was carried out at 30° C. for 30 minutes.

human AMCase = target: T3, human AMCase (Homo sapiens, UniProt Q9BZP6); assay: Human AMCase inhibition, 4MU-GlcNAc2 chitinase assay; type: biochemical; conditions: 1 mM inhibitor
T3 construct: made in house; host or cells: HEK 293 (transient transfection, supernatant)
Description: Briefly, the assay consisted of fluorogenic substrate 4-methylumbelliferyl-β-D-N,N′-diacetylchitobiose (4MU-GlcNAc2; Sigma) at a final concentration of 22 μM, along with 1 nM of enzyme in a final volume of 100 μl. The fluorescence was read using excitation and emission wavelengths of 355 nm and 460 nm respectively. The buffers were same as described above for fungal chitinase assessments except that the assay was carried out at 30° C. for 30 minutes.

[2] = target: cellulase from Aspergillus niger; assay: Cellulase assay, 4-methylumbelliferyl-β-D-cellobioside; type: biochemical; conditions: 5 nM enzyme, 20 μM substrate, 30 min at 37° C.
Description: (§1) Additionally, for comparison, inhibition studies were performed on celluase from Aspergillus niger, phosphodiesterase 4A and lysozyme.
Commercially available […] from Aspergillus niger (Sigma: C-1184) was assayed, using the fluorogenic substrate 4-methylumbelliferyl-β-D-cellobioside (Sigma M-6018). In a final volume of 50 μl, 5 nM of enzyme was incubated with 20 μM substrate in McIlvain buffer containing 0.1 mg/ml BSA, for 30 min at 37° C. in the presence of different concentration of inhibitors. After the addition of 25 μl of 3 M glycine-NaOH, pH 10.3, the fluorescence of the liberated 4-methylumbelliferone (4MU) was quantified using an Flx 800 microtitreplate fluorescence reader (Bio-Tek Instruments Inc.), with excitation and emission wavelengths of 360 nm and […], respectively, using 40 nm slits. Experiments were performed in triplicate. Production of 4MU was linear with time for the incubation period used, and less than 10% of available substrate was hydrolyzed.

[3] = target: T4, Chicken egg white lysozyme (Gallus gallus, UniProt P00698); assay: Lysozyme assay, EnzCheck Lysozyme kit; type: biochemical; conditions: 500 μM inhibitor
T4 construct: Chicken egg white lysozyme and its substrate; purchased Molecular probes EnzCheck Lysozyme kit; host or cells: chicken egg white
Description: as §1
Lysozyme was assayed using the EnzCheck Lysozyme kit from Molecular probes as described by the manufacturer. Chicken egg white lysozyme and its substrate, fluorescein labeled Micrococcus lysodeikyius cell wall (DQ Lysozyme substrate) were used to determine compound inhibition. Briefly, 6.25 units of lysozyme were incubated with 25 μg of DQ substrate with or without various concentrations of inhibitor in a total volume of 100 μl at 37° C. for 30 minutes. The fluorescence was determined using excitation and emission wavelengths of 360 nm and 460 nm, respectively. The potency of inhibitors (IC50) was determined from a dose-response curve. Experiments were performed in triplicate.

[4] = target: H.Chito (human chitotriosidase) (Homo sapiens, UniProt Q13231); assay: Further inhibition studies, human chitotriosidase (Table 2); type: biochemical
Description: (§2) Inhibition Studies on Human and Mouse AMCase and Chitotriosidase

H.AMCase (human AMCase) = H.AMCase (human AMCase) (Homo sapiens, UniProt Q9BZP6); assay: Further inhibition studies, human AMCase (Table 2); type: biochemical
Description: as §2

M.AMCase (mouse AMCase) = M.AMCase (mouse AMCase) (Mus musculus, UniProt Q91XA9); assay: Further inhibition studies, mouse AMCase (Table 2); type: biochemical
Description: as §2

[5] = target: M.Chito (mouse chitotriosidase) (Mus musculus, UniProt Q9D7Q1); assay: Further inhibition studies, mouse chitotriosidase (Table 2); type: biochemical
Description: as §2

AfChiB1 [6] = target: T1, AfChiB1; assay: AfChiB1 binding (Kd)
[7] = target: Phosphodiesterase 4A (PDE4A) (Homo sapiens, UniProt P27815); conditions: PDE-SPA assay, result in words
Description: The assay reaction contained 100 nM [^3H]cAMP (1 μCi/ml) in a buffer containing 20 mM HEPES (pH 7.5), 10 mM MgCl2, 100 mM EDTA, 100 mM KCl and 2 μl of test compound in DMSO at 30° C. The reaction was initiated by addition of enzyme for 10 min. The potency of inhibitors (IC50) was determined from a dose-response curve. Experiments were performed with n=6.

[8] = Table 5, N3 compounds, against AfChiB, read-out: IC50
[9] = Table 6, N7 compounds, against AfChiB, read-out: IC50
[10] = Trio substrate, pH 5.2, read-out: H.Chito Trio pH 5.2 (IC50)
[11] = human AMCase, Bio substrate, pH 4.5, read-out: H.AMCase Bio pH 4.5 (IC50)
[12] = mouse AMCase, Bio substrate, pH 4.5, read-out: M.AMCase Bio pH 4.5 (IC50)
[13] = mouse chitotriosidase, Bio substrate, pH 5.2, read-out: M.Chito Bio pH 5.2 (IC50)
[14] = 2 nM enzyme, 20 μM substrate, pH 5.5, 10 min at 37° C., read-out: AfChiB1 IC50

Chain of H.Chito (human chitotriosidase) (Q13231 22-466): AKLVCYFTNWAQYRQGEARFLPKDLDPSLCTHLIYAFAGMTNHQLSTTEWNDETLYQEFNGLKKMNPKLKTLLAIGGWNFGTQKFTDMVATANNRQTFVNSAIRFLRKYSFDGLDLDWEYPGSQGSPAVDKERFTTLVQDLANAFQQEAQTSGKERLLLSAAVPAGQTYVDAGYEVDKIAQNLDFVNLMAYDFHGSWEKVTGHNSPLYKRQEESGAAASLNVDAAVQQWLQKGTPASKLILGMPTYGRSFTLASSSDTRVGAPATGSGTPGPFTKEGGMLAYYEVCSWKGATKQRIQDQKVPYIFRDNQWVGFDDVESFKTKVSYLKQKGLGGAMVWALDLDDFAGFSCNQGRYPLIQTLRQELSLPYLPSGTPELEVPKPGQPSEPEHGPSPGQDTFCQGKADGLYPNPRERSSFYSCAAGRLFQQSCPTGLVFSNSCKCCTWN
T4 sequence (P00698 19-147): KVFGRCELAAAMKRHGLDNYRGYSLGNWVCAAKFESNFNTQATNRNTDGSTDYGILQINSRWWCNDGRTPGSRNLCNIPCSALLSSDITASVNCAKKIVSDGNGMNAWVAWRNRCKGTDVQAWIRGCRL
Chain of M.Chito (mouse chitotriosidase) (Q9D7Q1 22-464): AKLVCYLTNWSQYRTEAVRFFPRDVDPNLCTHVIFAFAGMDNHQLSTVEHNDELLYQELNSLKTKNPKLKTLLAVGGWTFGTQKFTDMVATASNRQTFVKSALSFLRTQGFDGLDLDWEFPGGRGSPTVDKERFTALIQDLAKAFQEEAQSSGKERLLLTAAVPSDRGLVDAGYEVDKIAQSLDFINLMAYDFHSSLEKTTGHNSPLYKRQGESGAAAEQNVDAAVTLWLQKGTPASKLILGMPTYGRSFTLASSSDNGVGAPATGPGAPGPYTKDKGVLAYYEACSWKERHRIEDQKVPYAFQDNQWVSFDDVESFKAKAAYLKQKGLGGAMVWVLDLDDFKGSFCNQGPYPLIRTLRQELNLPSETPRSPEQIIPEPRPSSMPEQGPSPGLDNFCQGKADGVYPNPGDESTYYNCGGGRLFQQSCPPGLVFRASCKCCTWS
Chain of M.AMCase (mouse AMCase) (Q91XA9 22-473): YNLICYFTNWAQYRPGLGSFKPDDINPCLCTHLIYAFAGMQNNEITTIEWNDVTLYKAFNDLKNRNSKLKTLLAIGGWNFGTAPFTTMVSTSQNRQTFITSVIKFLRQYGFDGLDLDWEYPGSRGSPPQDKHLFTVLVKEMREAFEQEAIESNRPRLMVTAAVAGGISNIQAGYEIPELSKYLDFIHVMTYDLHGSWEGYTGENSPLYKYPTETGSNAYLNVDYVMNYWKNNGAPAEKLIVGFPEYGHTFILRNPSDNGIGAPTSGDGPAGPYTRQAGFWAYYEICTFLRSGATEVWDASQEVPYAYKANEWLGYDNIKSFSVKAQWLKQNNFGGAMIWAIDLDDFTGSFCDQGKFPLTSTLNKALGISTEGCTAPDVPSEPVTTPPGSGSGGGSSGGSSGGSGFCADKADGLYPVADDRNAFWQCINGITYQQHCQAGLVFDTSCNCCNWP
Chain of H.AMCase (human AMCase) (Q9BZP6 22-476): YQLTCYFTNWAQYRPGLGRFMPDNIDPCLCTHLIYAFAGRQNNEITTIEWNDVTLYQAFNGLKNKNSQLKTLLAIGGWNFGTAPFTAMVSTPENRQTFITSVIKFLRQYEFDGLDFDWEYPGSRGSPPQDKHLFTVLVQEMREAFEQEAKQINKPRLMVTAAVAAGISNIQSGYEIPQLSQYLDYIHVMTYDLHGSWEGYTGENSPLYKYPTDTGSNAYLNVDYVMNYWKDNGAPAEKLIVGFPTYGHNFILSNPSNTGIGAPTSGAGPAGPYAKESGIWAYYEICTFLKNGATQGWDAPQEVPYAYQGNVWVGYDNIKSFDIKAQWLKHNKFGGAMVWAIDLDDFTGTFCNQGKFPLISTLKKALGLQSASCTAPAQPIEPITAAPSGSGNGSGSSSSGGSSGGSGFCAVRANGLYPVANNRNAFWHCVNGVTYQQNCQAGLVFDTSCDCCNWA
T2 sequence (Q13231 22-466): as the sequence (Q13231 22-466) above
T3 sequence (Q9BZP6 22-476): as the sequence (Q9BZP6 22-476) above
Chain of Phosphodiesterase 4A (PDE4A) (P27815 whole entry): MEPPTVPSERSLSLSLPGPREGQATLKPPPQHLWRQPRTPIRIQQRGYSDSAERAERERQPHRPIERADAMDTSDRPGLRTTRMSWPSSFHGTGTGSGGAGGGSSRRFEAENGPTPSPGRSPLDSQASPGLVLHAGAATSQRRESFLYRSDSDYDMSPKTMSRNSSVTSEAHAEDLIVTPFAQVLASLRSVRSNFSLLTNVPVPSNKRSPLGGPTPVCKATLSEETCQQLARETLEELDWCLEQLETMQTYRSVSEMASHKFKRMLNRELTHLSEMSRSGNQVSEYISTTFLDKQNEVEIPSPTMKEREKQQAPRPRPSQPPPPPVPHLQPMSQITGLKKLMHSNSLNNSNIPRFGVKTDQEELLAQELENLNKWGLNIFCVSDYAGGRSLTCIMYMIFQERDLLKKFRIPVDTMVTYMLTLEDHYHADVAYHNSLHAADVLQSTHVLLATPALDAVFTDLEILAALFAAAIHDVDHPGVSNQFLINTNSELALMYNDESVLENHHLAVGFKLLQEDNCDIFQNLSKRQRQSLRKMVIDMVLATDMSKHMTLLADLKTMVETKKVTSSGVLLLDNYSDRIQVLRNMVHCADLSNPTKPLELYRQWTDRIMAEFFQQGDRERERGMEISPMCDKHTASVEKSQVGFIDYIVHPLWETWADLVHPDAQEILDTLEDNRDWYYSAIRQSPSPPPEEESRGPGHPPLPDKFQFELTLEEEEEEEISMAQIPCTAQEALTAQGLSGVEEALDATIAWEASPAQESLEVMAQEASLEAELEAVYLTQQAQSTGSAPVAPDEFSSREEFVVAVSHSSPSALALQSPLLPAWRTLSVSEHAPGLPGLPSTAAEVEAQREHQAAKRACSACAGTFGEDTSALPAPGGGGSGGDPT

Structure (SMILES): Cn1cnc2c1c(=O)n(CCn1c(=O)c3c(ncn3C)n(C)c1=O)c(=O)n2C [Compound 1]
- IC50 (AfChiB1 [1]): 6 µM

Structure (SMILES): Cn1cnc2c1c(=O)n(CCCn1c(=O)c3c(ncn3C)n(C)c1=O)c(=O)n2C [Compound 2]
- IC50 (AfChiB1 [1]): 0.23 µM

Structure (SMILES): Cn1cnc2c1c(=O)n(CCCCn1c(=O)c3c(ncn3C)n(C)c1=O)c(=O)n2C [Compound 3]
- IC50 (AfChiB1 [1]): 6 µM

Structure (SMILES): Cn1cnc2[nH]c(=O)n(CCCn3c(=O)c4c(ncn4C)n(C)c3=O)c(=O)c21 [Compound 9]
- IC50 (AfChiB1 [1]; [8]): 0.086 µM

Structure (SMILES): CCn1c(=O)n(CCCn2c(=O)c3c(ncn3C)n(C)c2=O)c(=O)c2c1ncn2C [Compound 10]
- IC50 (AfChiB1 [1]; [8]): 0.31 µM

Structure (SMILES): C=CCn1c(=O)n(CCCn2c(=O)c3c(ncn3C)n(C)c2=O)c(=O)c2c1ncn2C [Compound 11]
- IC50 (AfChiB1 [1]; [8]): 0.14 µM

Structure (SMILES): CC(C)n1c(=O)n(CCCn2c(=O)c3c(ncn3C)n(C)c2=O)c(=O)c2c1ncn2C [Compound 12]
- IC50 (AfChiB1 [1]; [8]): 0.52 µM

Structure (SMILES): Cn1cnc2c1c(=O)n(CCCn1c(=O)c3c(ncn3C)n(CCN)c1=O)c(=O)n2C [Compound 13]
- IC50 (AfChiB1 [1]; [8]): 0.078 µM

Structure (SMILES): Cn1cnc2c1c(=O)n(CCCn1c(=O)c3c(ncn3C)n(CCO)c1=O)c(=O)n2C [Compound 14]
- IC50 (AfChiB1 [1]; [8]): 0.18 µM

Structure (SMILES): Cn1cnc2c1c(=O)n(CCCn1c(=O)c3c(ncn3C)n(CCCN)c1=O)c(=O)n2C [Compound 15]
- IC50 (AfChiB1 [1]; [8]): 0.44 µM

Structure (SMILES): Cn1cnc2c1c(=O)n(CCCn1c(=O)c3c(ncn3C)n(CCCO)c1=O)c(=O)n2C [Compound 16]
- IC50 (AfChiB1 [1]; [8]): 0.44 µM

Structure (SMILES): Cn1cnc2c1c(=O)n(CCCn1c(=O)c3nc[nH]c3n(C)c1=O)c(=O)n2C [Compound 17]
- IC50 (AfChiB1 [1]; [9]): 0.2 µM

Structure (SMILES): Cn1cnc2c1c(=O)n(CCCn1c(=O)c3c(ncn3CCC(=O)O)n(C)c1=O)c(=O)n2C [Compound 19]
- IC50 (AfChiB1 [1]; [9]): 0.16 µM

Structure (SMILES): COC(=O)CCCn1cnc2c1c(=O)n(CCCn1c(=O)c3c(ncn3C)n(C)c1=O)c(=O)n2C [Compound 20]
- IC50 (AfChiB1 [1]; [9]): 0.14 µM

Structure (SMILES): Cn1cnc2c1c(=O)n(CCCn1c(=O)c3c(ncn3CCCC(=O)O)n(C)c1=O)c(=O)n2C [Compound 21]
- IC50 (AfChiB1 [1]; [9]): 0.2 µM

Structure (SMILES): COC(=O)CCCCn1cnc2c1c(=O)n(CCCn1c(=O)c3c(ncn3C)n(C)c1=O)c(=O)n2C [Compound 22]
- IC50 (AfChiB1 [1]; [9]): 0.3 µM

Structure (SMILES): Cn1cnc2c1c(=O)n(CCCn1c(=O)c3c(ncn3CCCCC(=O)O)n(C)c1=O)c(=O)n2C [Compound 23]
- IC50 (AfChiB1 [1]; [9]): 0.36 µM

Structure (SMILES): COC(=O)C=CCn1cnc2c1c(=O)n(CCCn1c(=O)c3c(ncn3C)n(C)c1=O)c(=O)n2C [Compound 24]
- IC50 (AfChiB1 [1]; [9]): 0.16 µM

Structure (SMILES): Cn1cnc2c1c(=O)n(CCCn1c(=O)c3c(ncn3CC=CC(=O)O)n(C)c1=O)c(=O)n2C [Compound 25]
- IC50 (AfChiB1 [1]; [9]): 0.42 µM

Structure (SMILES): Cn1c(=O)c2c(ncn2C)n(C)c1=O [caffeine]
- IC50 (human chitotriosidase): 257 ± 8 µM
- hAMCase activity at 1 mM (human AMCase): 36%
- IC50 [2]: 1250 ± 278 µM
- Egg white lysozyme activity at 500 μM [3]: 100%
- IC50 ([4]; H.Chito Bio pH 5.2 (IC50), Bio substrate): 650 µM
- IC50 [4, 10]: 850 µM
- IC50 (H.AMCase (human AMCase); [11]): 500 µM
- IC50 (M.AMCase (mouse AMCase); [12]): 800 µM
- IC50 [5, 13]: > 1000 µM

Structure (SMILES): CC(=O)CCCCn1c(=O)c2c(ncn2C)n(C)c1=O [pentoxifylline]
- IC50 (AfChiB1 [1]; [14]): 126 µM
- Ki (AfChiB1 [1]; competitive inhibitor, 5-30 μM substrate, fit to competitive inhibition equation): 37 µM
- Kd (AfChiB1 [6]): 43 ± 10 µM
- IC50 (human chitotriosidase): 98 µM
- hAMCase activity at 1 mM (human AMCase): 49%
- IC50 [2]: 881 ± 319 µM
- Egg white lysozyme activity at 500 μM [3]: 100%
- IC50 [4, 10]: 400 µM
- IC50 (H.AMCase (human AMCase); [11]): 400 µM
- IC50 (M.AMCase (mouse AMCase); [12]): 400 µM
- IC50 [5, 13]: ~1000 µM
- inhibition of human phosphodiesterase-4 [7]: barely detectable

Structure (SMILES): Cn1c(=O)c2[nH]cnc2n(C)c1=O [theophylline]
- IC50 (AfChiB1 [1]; [14]): 1500 µM
- IC50 [2]: 1010 ± 159 µM
- Egg white lysozyme activity at 500 μM [3]: 100%
- IC50 (H.AMCase (human AMCase)): ~2000 µM
- IC50 (M.AMCase (mouse AMCase)): ~1600 µM
- IC50 [5]: > 2000 µM
